In ChEMBL document CHEMBL5053535, “Design, synthesis and biological evaluation of novel aminopyrazole- and 7-azaindole-based Nek1 inhibitors and their effects on zebrafish kidney development” (Bioorg Med Chem Lett, 2021):
Values after ≈ are worked out from the molar mass of the structure shown.

How the values were obtained:
[1] = target: T1, Serine/threonine-protein kinase Nek1 (Homo sapiens) (UniProt Q96PY6); experiment: Inhibition of human NEK1 using myelin basic protein as substrate assessed as residual activity at 1 uM in presence of [gamma-33P]-ATP by radiometric hotspot kinase assay relative to control
T1 sequence (whole entry): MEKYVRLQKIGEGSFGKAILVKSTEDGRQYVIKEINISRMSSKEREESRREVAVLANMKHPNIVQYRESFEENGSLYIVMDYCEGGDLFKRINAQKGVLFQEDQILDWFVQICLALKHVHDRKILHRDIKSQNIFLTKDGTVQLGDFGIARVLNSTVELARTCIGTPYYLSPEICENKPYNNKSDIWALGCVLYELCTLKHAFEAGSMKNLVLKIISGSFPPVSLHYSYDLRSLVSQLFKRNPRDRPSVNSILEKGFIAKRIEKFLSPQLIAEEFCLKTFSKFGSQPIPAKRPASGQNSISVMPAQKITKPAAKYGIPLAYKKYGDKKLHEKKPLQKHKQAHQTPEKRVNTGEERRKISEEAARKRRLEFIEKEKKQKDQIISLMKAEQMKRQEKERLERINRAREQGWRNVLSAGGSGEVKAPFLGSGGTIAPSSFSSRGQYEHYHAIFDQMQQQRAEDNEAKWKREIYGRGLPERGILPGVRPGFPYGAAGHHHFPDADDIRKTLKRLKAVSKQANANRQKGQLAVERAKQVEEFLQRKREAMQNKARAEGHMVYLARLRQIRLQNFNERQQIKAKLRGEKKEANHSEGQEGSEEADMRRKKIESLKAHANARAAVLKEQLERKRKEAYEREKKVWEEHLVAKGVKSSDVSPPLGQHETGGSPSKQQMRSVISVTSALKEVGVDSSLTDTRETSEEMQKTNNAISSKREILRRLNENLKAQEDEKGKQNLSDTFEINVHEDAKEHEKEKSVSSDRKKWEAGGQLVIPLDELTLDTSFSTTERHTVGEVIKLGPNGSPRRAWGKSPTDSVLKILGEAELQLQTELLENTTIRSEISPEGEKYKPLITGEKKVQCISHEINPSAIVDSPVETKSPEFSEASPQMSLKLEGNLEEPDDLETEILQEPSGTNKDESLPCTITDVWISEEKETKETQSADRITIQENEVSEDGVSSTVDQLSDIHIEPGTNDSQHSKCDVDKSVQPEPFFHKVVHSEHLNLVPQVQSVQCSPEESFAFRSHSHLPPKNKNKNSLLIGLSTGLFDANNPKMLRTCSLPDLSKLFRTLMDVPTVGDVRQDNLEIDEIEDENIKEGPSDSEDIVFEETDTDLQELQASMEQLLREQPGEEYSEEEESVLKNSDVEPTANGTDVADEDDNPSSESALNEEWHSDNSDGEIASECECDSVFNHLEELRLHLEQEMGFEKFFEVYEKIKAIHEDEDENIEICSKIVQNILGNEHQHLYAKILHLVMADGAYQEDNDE

[2] = target: T2, Serine/threonine-protein kinase Nek1 (Homo sapiens, UniProt Q96PY6); experiment: Inhibition of human NEK1 using myelin basic protein as substrate assessed as residual activity in presence of [gamma-33P]-ATP by radiometric hotspot kinase assay relative to control
T2 sequence (Q96PY6 whole entry): T1 sequence (whole entry)

[3] = target: Cyclin-dependent kinase 2/cyclin E1 (Homo sapiens) (UniProt P24864+P24941); experiment: (§1) Inhibition of human recombinant full length C-terminal His6 tagged CDK2/ N-terminal GST-tagged Cyclin E expressed in baculovirus infected Sf21 insect cells using histone H1 as substrate assessed as residual activity at 1 uM pretreated for 20 mins followed by [33P]-ATP addition measured after 120 mins by radiometric hotspot kinase assay relative to control; conditions: time 140.0 min
[4] = target: T3, Serine/threonine-protein kinase Chk1 (Homo sapiens) (UniProt O14757); experiment: as §1, with “N-terminal His” for “C-terminal His6”, “CHK1” for “CDK2/ N-terminal GST-tagged Cyclin E”, “CHKtide” for “histone H1”; conditions: time 140.0 min
T3 sequence (whole entry): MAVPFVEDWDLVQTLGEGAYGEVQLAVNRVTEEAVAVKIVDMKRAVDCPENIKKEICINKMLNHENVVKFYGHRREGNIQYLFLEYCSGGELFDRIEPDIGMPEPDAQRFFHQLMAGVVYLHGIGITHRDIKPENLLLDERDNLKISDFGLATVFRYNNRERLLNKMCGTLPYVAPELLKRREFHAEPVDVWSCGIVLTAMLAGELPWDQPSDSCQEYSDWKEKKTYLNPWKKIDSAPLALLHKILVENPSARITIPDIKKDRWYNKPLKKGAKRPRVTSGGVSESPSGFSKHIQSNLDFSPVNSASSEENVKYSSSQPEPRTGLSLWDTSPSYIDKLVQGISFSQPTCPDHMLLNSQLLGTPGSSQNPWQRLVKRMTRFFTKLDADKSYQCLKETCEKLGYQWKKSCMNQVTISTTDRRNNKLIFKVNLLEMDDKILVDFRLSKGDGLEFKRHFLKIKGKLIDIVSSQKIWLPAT

[5] = target: Vascular endothelial growth factor receptor 2 (Homo sapiens) (UniProt P35968); experiment: Inhibition of human recombinant C-terminal His6 tagged VEGFR2 (789 to 1356 residues) expressed in baculovirus infected insect cells assessed as residual activity at 1 uM pretreated for 20 mins followed by [33P]-ATP addition measured after 120 mins by radiometric hotspot kinase assay relative to control; conditions: time 140.0 min
[6] = target: T4, Serine/threonine-protein kinase Nek5 (Homo sapiens) (UniProt Q6P3R8); experiment: Inhibition of human recombinant NEK5 assessed as residual activity at 1 uM pretreated for 20 mins followed by [33P]-ATP addition measured after 120 mins by radiometric hotspot kinase assay relative to control; conditions: time 140.0 min
T4 sequence (whole entry): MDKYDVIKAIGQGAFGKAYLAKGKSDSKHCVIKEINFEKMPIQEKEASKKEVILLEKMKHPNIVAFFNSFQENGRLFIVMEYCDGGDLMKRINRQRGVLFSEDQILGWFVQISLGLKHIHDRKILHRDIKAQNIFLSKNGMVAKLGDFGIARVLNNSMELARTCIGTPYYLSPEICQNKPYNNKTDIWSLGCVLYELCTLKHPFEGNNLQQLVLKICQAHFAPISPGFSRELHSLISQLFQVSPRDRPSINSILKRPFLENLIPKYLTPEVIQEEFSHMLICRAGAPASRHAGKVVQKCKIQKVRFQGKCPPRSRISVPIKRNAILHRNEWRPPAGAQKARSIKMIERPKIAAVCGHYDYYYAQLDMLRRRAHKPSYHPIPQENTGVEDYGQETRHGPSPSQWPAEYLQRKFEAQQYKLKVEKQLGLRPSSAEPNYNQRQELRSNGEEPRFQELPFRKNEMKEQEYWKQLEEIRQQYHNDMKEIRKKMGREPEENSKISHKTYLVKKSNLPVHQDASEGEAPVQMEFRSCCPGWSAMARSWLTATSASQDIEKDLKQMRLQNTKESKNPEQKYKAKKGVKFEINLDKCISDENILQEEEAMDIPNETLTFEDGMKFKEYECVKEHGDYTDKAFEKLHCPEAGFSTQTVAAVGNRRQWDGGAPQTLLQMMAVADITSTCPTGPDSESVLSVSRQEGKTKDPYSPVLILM

[7] = target: Wee1-like protein kinase (Homo sapiens) (UniProt P30291); experiment: Inhibition of human recombinant full length WEE1 expressed in insect cells using MBP as substrate assessed as residual activity at 1 uM pretreated for 20 mins followed by [33P]-ATP addition measured after 120 mins by radiometric hotspot kinase assay relative to control; conditions: time 140.0 min
[8] = Solubility of the compound in E3 medium with 0.2% DMSO by DAD-HPLC based shake flask method; format: physicochemical
[9] = Solubility of the compound in DMEM with 1% DMSO by DAD-HPLC based shake flask method; format: physicochemical
[10] = Stability of the compound in DMEM measured after 48 hrs by DAD-HPLC method; format: physicochemical; conditions: read-out: Stability
[11] = target: T1, Serine/threonine-protein kinase Nek1 (Homo sapiens); experiment: Inhibition of human NEK1 using myelin basic protein as substrate assessed as residual activity at 10 uM in presence of [gamma-33P]-ATP by radiometric hotspot kinase assay relative to control
[12] = Permeability across apical to basolateral side in human Caco-2 cells at pH 6.5 at 1 uM; format: ADME, cell-based; conditions: Caco-2, pH 6.5, read-out: permeability
[13] = Permeability across apical to basolateral side in human Caco-2 cells at pH 6.5 assessed as compound recovery at 1 uM; format: ADME, cell-based; conditions: Caco-2, pH 6.5, read-out: Drug recovery
[14] = Permeability across basolateral to apical side in human Caco-2 cells at pH 7.4 at 1 uM; format: ADME, cell-based; conditions: Caco-2, pH 7.4, read-out: permeability
[15] = Permeability across basolateral to apical side in human Caco-2 cells at pH 7.4 assessed as compound recovery at 1 uM; format: ADME, cell-based; conditions: Caco-2, pH 7.4, read-out: Drug recovery

Chain of Vascular endothelial growth factor receptor 2 (Homo sapiens) (P35968 whole entry, the tested form may be a part): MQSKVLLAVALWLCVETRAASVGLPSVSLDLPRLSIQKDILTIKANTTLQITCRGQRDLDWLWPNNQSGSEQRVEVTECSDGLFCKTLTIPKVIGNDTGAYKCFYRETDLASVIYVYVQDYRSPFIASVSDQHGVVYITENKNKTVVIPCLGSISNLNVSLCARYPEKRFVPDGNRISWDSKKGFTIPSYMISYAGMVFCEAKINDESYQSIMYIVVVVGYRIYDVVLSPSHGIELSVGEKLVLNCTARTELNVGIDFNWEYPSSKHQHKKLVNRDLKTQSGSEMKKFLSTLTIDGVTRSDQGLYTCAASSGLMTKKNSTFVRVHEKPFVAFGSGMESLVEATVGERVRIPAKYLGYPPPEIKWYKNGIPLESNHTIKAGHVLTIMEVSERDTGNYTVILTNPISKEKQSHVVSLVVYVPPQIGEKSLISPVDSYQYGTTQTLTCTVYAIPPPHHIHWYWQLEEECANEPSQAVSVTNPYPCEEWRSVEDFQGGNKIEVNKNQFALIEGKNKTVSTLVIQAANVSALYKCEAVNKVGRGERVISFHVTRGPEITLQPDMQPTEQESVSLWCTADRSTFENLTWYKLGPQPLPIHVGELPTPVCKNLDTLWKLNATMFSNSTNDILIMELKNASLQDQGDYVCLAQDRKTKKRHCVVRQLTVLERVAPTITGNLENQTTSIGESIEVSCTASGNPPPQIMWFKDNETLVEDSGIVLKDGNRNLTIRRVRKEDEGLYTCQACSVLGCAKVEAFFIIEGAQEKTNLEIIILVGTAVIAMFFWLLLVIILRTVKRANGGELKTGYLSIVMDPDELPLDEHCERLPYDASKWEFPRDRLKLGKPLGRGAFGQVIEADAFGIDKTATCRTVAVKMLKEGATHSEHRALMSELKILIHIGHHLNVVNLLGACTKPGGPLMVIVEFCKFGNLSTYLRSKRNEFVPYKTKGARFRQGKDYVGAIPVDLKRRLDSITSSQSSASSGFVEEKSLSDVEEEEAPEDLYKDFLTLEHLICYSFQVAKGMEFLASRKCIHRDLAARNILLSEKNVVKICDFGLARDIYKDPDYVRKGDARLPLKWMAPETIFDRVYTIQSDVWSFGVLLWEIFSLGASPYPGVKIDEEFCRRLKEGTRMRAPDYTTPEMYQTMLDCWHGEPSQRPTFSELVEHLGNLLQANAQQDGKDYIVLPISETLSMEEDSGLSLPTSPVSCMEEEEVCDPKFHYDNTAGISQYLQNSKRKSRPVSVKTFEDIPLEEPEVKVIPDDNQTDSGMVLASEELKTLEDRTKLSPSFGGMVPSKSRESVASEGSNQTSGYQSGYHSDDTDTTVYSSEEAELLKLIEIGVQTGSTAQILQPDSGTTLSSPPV
Chain of Wee1-like protein kinase (Homo sapiens) (P30291 whole entry, looked up): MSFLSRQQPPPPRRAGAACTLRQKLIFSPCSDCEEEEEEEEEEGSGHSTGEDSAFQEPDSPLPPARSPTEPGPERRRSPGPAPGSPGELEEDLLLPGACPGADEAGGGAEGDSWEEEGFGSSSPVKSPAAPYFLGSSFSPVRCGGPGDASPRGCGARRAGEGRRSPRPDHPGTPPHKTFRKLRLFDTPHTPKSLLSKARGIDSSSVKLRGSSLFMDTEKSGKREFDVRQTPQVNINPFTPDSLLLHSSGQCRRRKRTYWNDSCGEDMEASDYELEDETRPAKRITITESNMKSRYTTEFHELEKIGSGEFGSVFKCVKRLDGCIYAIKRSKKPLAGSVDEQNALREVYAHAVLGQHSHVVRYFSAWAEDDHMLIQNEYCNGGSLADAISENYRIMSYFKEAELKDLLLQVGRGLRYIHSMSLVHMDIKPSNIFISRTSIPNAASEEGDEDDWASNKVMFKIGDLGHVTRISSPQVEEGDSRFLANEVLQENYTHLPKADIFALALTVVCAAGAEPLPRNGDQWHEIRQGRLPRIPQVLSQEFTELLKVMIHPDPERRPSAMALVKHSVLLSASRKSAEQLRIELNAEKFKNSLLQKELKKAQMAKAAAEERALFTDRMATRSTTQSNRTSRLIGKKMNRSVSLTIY

Compound `Cc1cc(Nc2ccnc(N3CCN(C)CC3)n2)n[nH]1` has an Activity [1] of 98.4%.

For `Cc1cc(Nc2ccnc(NC3CC3)n2)n[nH]1`, the Activity [1] was 95.1%.

For `COC(=O)c1cccc(-c2cnc3[nH]cc(-c4ccccc4OC)c3c2)c1`, the Activity [1] was 60.9%.

Work on `N#Cc1cccc(-c2cnc3[nH]cc(-c4ccccc4)c3c2)c1` yielded an Activity [1] of 52.3%.

Work on `c1ccc(Nc2nccc(Nc3cc(C4CC4)[nH]n3)n2)cc1` yielded an IC50 [2] of 850 nM.

`N#Cc1cccc(-c2cnc3[nH]cc(-c4cccnc4)c3c2)c1` gave an Activity [1] of 17.4%, an IC50 [2] of 129 nM and an Activity [3] of 2.9%. It also gave an Activity [4] of 69.6%, an Activity [5] of 35% and an Activity [6] of 27.9%. It also gave an Activity [7] of 83.4%, a solubility [8] of 7.2 µM (≈ 2.13 µg/mL) and a solubility [9] of 5.7 µM (≈ 1.69 µg/mL). For the same compound, the remaining at 48 h [10] was 98%.

`Cc1cc(Nc2ccnc(Nc3ccccc3C)n2)n[nH]1` gave an Activity [1] of 87.5%.

In the case of `COC(=O)c1cccc(-c2cnc3[nH]cc(-c4ccccc4)c3c2)c1`, the Activity [1] is reported as 7.31%, the IC50 [2] is reported as 123 nM and the Activity [3] is reported as 23.5%. For the same compound, the Activity [4] was > 100%, the Activity [5] was 97.2% and the Activity [6] was 78.7%. For the same compound, the Activity [7] was 82.9%, the solubility [8] was 2.5 µM (≈ 0.821 µg/mL) and the solubility [9] was 4.4 µM (≈ 1.44 µg/mL). The remaining at 48 h [10] was 86%.

Work on `Cc1ccc(-c2c[nH]c3ncc(-c4cccc(C#N)c4)cc23)cc1` yielded an Activity [1] of 72.8%.

Work on `COCCNc1nccc(Nc2cc(C)[nH]n2)n1` yielded an Activity [1] of 99.8%.

Compound `COC(=O)c1cccc(-c2cnc3[nH]ccc3c2)c1` has an Activity [11] of 44.7%.

With `N#Cc1cccc(-c2cnc3[nH]ccc3c2)c1` the Activity [11] was 64.7%.

`O=[N+]([O-])c1cccc(-c2cnc3[nH]ccc3c2)c1` gave an Activity [11] of 78.5%.

Work on `O=C(O)c1cccc(-c2cnc3[nH]ccc3c2)c1` yielded an Activity [11] of 72.8%.

Compound `COc1cccc(-c2c[nH]c3ncc(-c4cccc(C#N)c4)cc23)c1` has an Activity [1] of 41.1%.

Compound `Cc1cc(Nc2ccnc(N(C)c3ccccc3)n2)n[nH]1` has an Activity [1] of 89.8%.

`COC(=O)c1cccc(-c2cnc3[nH]cc(-c4ccccc4C)c3c2)c1` showed an Activity [1] of 61%.

`COC(=O)c1cccc(-c2cnc3[nH]cc(-c4cncnc4)c3c2)c1` gave an Activity [1] of 5.89%, an IC50 [2] of 62.5 nM and an Activity [3] of 22.3%. The Activity [4] was 73.8%, the Activity [5] was 61.3% and the Activity [6] was 23.3%. It also gave an Activity [7] of 76.2%, a solubility [8] of 4.6 µM (≈ 1.52 µg/mL) and a solubility [9] of 28.6 µM (≈ 9.45 µg/mL). For the same compound, the remaining at 48 h [10] was 72%, the Papp A→B at 1 µM [12] was 0.37 ×10⁻⁶ cm/s and the recovery at 1 µM [13] was 1.5%. The Papp B→A at 1 µM [14] was 0.21 ×10⁻⁶ cm/s and the recovery at 1 µM [15] was 41.1%.

In the case of `CNC(=O)c1cccc(-c2cnc3[nH]ccc3c2)c1`, the Activity [11] is reported as 67.2%.

With `COC(=O)c1cccc(-c2cnc3[nH]cc(-c4ccc(C)cc4)c3c2)c1` the Activity [1] was 47.9%.
